Measurements reported in US10758534B2 (Vertex Pharmaceuticals Incorporated, priority 2014, dated 2020).

Biological target: T1, F508del (Homo sapiens, UniProt P13569, DEL508-508)
T1 construct: expressed in transfected cells
Test: Protocol 1: membrane potential optical assay (FLIPR III, voltage sensing dye), identification of potentiator compounds
Assay type: cell-based
Details: Table 3, compounds of Table 1
Summary of the method: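 Membrane potential in forskolin-activated, temperature-rescued F508del NIH 3T3 cells is followed with a voltage-sensing dye on FLIPR III. A chloride ion gradient created at the single addition step provides the driving force, after prior compound treatment.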

T1 sequence (P13569 with tags, fused parts or gaps DEL508-508): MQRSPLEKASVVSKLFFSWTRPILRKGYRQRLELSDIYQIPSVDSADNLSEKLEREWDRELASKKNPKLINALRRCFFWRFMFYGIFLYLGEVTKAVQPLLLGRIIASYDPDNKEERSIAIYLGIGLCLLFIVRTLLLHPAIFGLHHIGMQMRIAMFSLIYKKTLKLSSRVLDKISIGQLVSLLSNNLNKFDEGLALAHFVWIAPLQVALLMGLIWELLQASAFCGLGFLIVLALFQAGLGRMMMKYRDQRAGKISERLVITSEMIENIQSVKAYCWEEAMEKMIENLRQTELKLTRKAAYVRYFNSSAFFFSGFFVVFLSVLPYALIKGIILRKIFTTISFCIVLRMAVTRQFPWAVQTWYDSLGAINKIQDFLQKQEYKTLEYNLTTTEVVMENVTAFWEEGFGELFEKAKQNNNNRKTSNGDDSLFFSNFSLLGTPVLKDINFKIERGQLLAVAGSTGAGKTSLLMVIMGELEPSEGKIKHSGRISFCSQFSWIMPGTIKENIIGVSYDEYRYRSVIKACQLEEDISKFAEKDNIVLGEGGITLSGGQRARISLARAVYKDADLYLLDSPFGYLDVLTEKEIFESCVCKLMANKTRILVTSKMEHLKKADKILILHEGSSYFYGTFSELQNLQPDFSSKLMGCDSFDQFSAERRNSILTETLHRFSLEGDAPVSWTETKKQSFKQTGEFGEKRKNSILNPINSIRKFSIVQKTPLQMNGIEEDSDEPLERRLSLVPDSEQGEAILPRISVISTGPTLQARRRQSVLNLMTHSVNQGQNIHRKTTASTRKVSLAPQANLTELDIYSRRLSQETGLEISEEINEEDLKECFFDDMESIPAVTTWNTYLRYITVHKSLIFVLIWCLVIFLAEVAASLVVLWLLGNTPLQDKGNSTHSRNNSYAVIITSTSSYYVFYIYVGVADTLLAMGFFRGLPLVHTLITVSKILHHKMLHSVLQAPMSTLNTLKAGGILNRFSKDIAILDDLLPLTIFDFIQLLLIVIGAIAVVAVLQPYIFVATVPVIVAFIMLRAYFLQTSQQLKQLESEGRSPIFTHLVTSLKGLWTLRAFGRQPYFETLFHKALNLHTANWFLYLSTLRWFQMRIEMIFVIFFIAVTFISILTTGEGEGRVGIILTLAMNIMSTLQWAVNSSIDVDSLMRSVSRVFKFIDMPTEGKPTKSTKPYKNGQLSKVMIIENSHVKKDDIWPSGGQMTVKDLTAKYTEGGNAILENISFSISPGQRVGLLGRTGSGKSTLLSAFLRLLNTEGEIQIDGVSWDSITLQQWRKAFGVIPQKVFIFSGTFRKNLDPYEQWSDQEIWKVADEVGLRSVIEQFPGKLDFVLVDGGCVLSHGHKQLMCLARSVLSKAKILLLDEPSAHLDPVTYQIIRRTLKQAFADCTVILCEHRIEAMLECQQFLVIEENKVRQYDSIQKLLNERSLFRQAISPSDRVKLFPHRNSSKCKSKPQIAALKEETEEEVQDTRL

Row | SMILES | EC30
1 | CC(C)Oc1cc(F)cc(-c2ccc(C(=O)NS(=O)(=O)c3cccc(N)n3)c(N3[C@H](C)CC[C@@H]3C)n2)c1 [Compound 1123, N-[(6-amino-2-pyridyl)sulfonyl]-2-[(2S,5R)-2,5-dimethylpyrrolidin-1-yl]-6-(3-fluoro-5-isopropoxy-phenyl)pyridine-3-carboxamide] | +++ (“+++” means <3 uM)
2 | Cc1ccc(-c2ccc(C(=O)NS(=O)(=O)c3nccnc3N)c(N3CCC(C)CC3)n2)cc1 [Compound 1084, N-(3-aminopyrazin-2-yl)sulfonyl-2-(4-methyl-1-piperidyl)-6-(p-tolyl)pyridine-3-carboxamide] | ++ (“++” means between 3 uM and 10 uM)
3 | CC(C)Oc1ccc(-c2ccc(C(=O)NS(=O)(=O)c3cccc(N)n3)c(N3CC[C@H](C)C3)n2)cn1 [Compound 1081, N-[(6-amino-2-pyridyl)sulfonyl]-6-(6-isopropoxy-3-pyridyl)-2-[(3S)-3-methylpyrrolidin-1-yl]pyridine-3-carboxamide] | ++ (“++” means between 3 uM and 10 uM)
4 | CC(C)COc1cc(F)cc(-c2nc(N3C[C@@H](C)CC3(C)C)ccc2C(=O)NS(=O)(=O)c2cccc(N)n2)c1 [Compound 1409, N-[(6-amino-2-pyridyl)sulfonyl]-2-(3-fluoro-5-isobutoxy-phenyl)-6-[(4S)-2,2,4-trimethylpyrrolidin-1-yl]pyridine-3-carboxamide] | +++ (“+++” means <3 uM)
5 | Cc1cc(C)c(Oc2nc(N3CCCC3C)c(C)cc2C(=O)NS(=O)(=O)c2cccc(N)n2)c(C)c1 (stereo not shown) [Compound 1516, N-[(6-amino-2-pyridyl)sulfonyl]-5-methyl-6-(2-methylpyrrolidin-1-yl)-2-(2,4,6-trimethylphenoxy)pyridine-3-carboxamide] | +++ (“+++” means <3 uM)
6 | CC(CO)COc1cc(F)cc(-c2ccc(C(=O)NS(=O)(=O)c3ccccc3)c(N3C[C@@H](C)CC3(C)C)n2)c1 (stereo partly drawn) [Compound 1515, N-(benzenesulfonyl)-6-[3-fluoro-5-(3-hydroxy-2-methyl-propoxy)phenyl]-2-[(4S)-2,2,4-trimethylpyrrolidin-1-yl]pyridine-3-carboxamide] | +++ (“+++” means <3 uM)
7 | CC(C)Oc1ccc(-c2ccc(C(=O)NS(=O)(=O)c3cccc(N)n3)c(N3CCC(Oc4ccccc4)CC3)n2)cn1 [Compound 1080, N-[(6-amino-2-pyridyl)sulfonyl]-6-(6-isopropoxy-3-pyridyl)-2-(4-phenoxy-1-piperidyl)pyridine-3-carboxamide] | +++ (“+++” means <3 uM)
8 | Cc1cc(C)c(Oc2nc(-n3cc(C)cn3)ccc2C(=O)NS(=O)(=O)c2cccc(N)n2)c(C)c1 [Compound 1220, N-[(6-amino-2-pyridyl)sulfonyl]-6-(4-methylpyrazol-1-yl)-2-(2,4,6-trimethylphenoxy)pyridine-3-carboxamide] | +++ (“+++” means <3 uM)
9 | Cc1cc(C)c(Oc2nc(-c3ccc4c(cnn4C)c3)ccc2C(=O)NS(=O)(=O)c2cccc(N)n2)c(C)c1 [Compound 1276, N-[(6-amino-2-pyridyl)sulfonyl]-6-(1-methylindazol-5-yl)-2-(2,4,6-trimethylphenoxy)pyridine-3-carboxamide] | ++ (“++” means between 3 uM and 10 uM)
10 | Cc1cc(-c2ccc(C(=O)NS(=O)(=O)c3cccnc3N)c(N3C[C@@H](C)CC3(C)C)n2)cnc1OCCOC(C)C [Compound 1695, N-[(2-amino-3-pyridyl)sulfonyl]-6-[6-(2-isopropoxyethoxy)-5-methyl-3-pyridyl]-2-[(4S)-2,2,4-trimethylpyrrolidin-1-yl]pyridine-3-carboxamide] | +++ (“+++” means <3 uM)
11 | CC(C)COc1cc(F)cc(-c2ccc(C(=O)NS(=O)(=O)c3ccn[nH]3)c(N3CCCC34CCC4)n2)c1 [Compound 1282, 2-(8-azaspiro[3.4]octan-8-yl)-6-(3-fluoro-5-isobutoxy-phenyl)-N-(1H-pyrazol-5-ylsulfonyl)pyridine-3-carboxamide] | +++ (“+++” means <3 uM)
12 | Cc1cc(C)c(C(C)N2Cc3ccccc3C2C(=O)NS(=O)(=O)c2cccc(N)n2)c(C)c1 (stereo not shown) [Compound 1186, N-[(6-amino-2-pyridyl)sulfonyl]-2-[1-(2,4,6-trimethylphenyl)ethyl]isoindoline-1-carboxamide] | +++ (“+++” means <3 uM)
13 | CC(C)COc1cc(F)cc(-c2nc(N3C[C@@H](C)CC3(C)C)c(C(=O)NS(=O)(=O)c3cccc(N)n3)cc2Cl)c1 [Compound 1641, N-[(6-amino-2-pyridyl)sulfonyl]-5-chloro-6-(3-fluoro-5-isobutoxy-phenyl)-2-[(4S)-2,2,4-trimethylpyrrolidin-1-yl]pyridine-3-carboxamide] | +++ (“+++” means <3 uM)
14 | Cc1cc(C)c(Oc2nc(-c3cn(C)nc3C(F)(F)F)ccc2C(=O)NS(=O)(=O)c2cccc(N)n2)c(C)c1 [Compound 812, N-[(6-amino-2-pyridyl)sulfonyl]-6-[1-methyl-3-(trifluoromethyl)pyrazol-4-yl]-2-(2,4,6-trimethylphenoxy)pyridine-3-carboxamide] | ++ (“++” means between 3 uM and 10 uM)
15 | CC(C)COc1cc(F)cc(-c2ccc(C(=O)NS(=O)(=O)c3ccn[nH]3)c(N3CCCC3Cc3ccccc3)n2)c1 (stereo not shown) [Compound 1257, 2-(2-benzylpyrrolidin-1-yl)-6-(3-fluoro-5-isobutoxy-phenyl)-N-(1H-pyrazol-5-ylsulfonyl)pyridine-3-carboxamide] | ++ (“++” means between 3 uM and 10 uM)
16 | COc1ncccc1S(=O)(=O)NC(=O)c1cc2c(nc1Oc1ccc(C)cc1C)C(C)(C)CCC2 [Compound 1347, 2-(2,4-dimethylphenoxy)-N-[(2-methoxy-3-pyridyl)sulfonyl]-8,8-dimethyl-6,7-dihydro-5H-quinoline-3-carboxamide] | +++ (“+++” means <3 uM)
17 | Cc1cc(C)c(Oc2nc(N(C)CC(C)C)c(C)cc2C(=O)NS(=O)(=O)c2cccc(N)n2)c(C)c1 [Compound 1416, N-[(6-amino-2-pyridyl)sulfonyl]-6-[isobutyl(methyl)amino]-5-methyl-2-(2,4,6-trimethylphenoxy)pyridine-3-carboxamide] | +++ (“+++” means <3 uM)
18 | CC(C)COc1cc(F)cc(-c2ccc(C(=O)NS(=O)(=O)c3cccc(N)n3)c(OCC3CCCCO3)n2)c1 (stereo not shown) [Compound 1570, N-[(6-amino-2-pyridyl)sulfonyl]-6-(3-fluoro-5-isobutoxy-phenyl)-2-(tetrahydropyran-2-ylmethoxy)pyridine-3-carboxamide] | +++ (“+++” means <3 uM)
19 | CCOc1cccc2c1CN(Cc1c(C)cc(C)cc1C)C2(C)C(=O)NS(=O)(=O)c1ccc(CC)c(N)c1 (stereo not shown) [Compound 1584, N-(3-amino-4-ethyl-phenyl)sulfonyl-4-ethoxy-1-methyl-2-[(2,4,6-trimethylphenyl)methyl]isoindoline-1-carboxamide] | +++ (“+++” means <3 uM)

More lines, now with the values ahead:

Row | EC30 | SMILES
20 | +++ (“+++” means <3 uM) | CC1CN(c2ncccc2C(=O)NS(=O)(=O)c2cccc(Nc3ccc(C(C)C)cc3)n2)C(C)(C)C1 (stereo not shown) [Compound 1722, N—[[6-(4-isopropylanilino)-2-pyridyl]sulfonyl]-2-(2,2,4-trimethylpyrrolidin-1-yl)pyridine-3-carboxamide]
21 | ++ (“++” means between 3 uM and 10 uM) | Cc1ccccc1C1CCCCCN1c1ncccc1C(=O)NS(=O)(=O)c1cccc(N)n1 (stereo not shown) [Compound 1772, N-[(6-amino-2-pyridyl)sulfonyl]-2-[2-(o-tolyl)azepan-1-yl]pyridine-3-carboxamide]
22 | ++ (“++” means between 3 uM and 10 uM) | C[C@@H]1CN(c2nc(-c3ccc4[nH]ccc4c3)ccc2C(=O)NS(=O)(=O)c2ccc[nH]c2=O)C(C)(C)C1 [Compound 1982, 6-(1H-indol-5-yl)-N-[(2-oxo-1H-pyridin-3-yl)sulfonyl]-2-[(4S)-2,2,4-trimethylpyrrolidin-1-yl]pyridine-3-carboxamide]
23 | +++ (“+++” means <3 uM) | CCOCCOc1cc(C)cc(-c2ccc(C(=O)NS(=O)(=O)c3cccc(N)n3)c(N3C[C@@H](C)CC3(C)C)n2)n1 [Compound 1700, N-[(6-amino-2-pyridyl)sulfonyl]-6-[6-(2-ethoxyethoxy)-4-methyl-2-pyridyl]-2-[(4S)-2,2,4-trimethylpyrrolidin-1-yl]pyridine-3-carboxamide]
24 | +++ (“+++” means <3 uM) | COc1ccccc1-c1cnc(N2CC(C)CC2(C)C)c(C(=O)NS(=O)(=O)c2cccc(N)n2)c1 (stereo not shown) [Compound 1735, N-[(6-amino-2-pyridyl)sulfonyl]-5-(2-methoxyphenyl)-2-(2,2,4-trimethylpyrrolidin-1-yl)pyridine-3-carboxamide]
25 | +++ (“+++” means <3 uM) | CC1CN(c2ncccc2C(=O)NS(=O)(=O)c2cccc(OC(C)c3ccccc3)n2)C(C)(C)C1 (stereo not shown) [Compound 1917, N—[[6-(1-phenylethoxy)-2-pyridyl]sulfonyl]-2-(2,2,4-trimethylpyrrolidin-1-yl)pyridine-3-carboxamide]
26 | +++ (“+++” means <3 uM) | CC(C)Oc1cc(-c2ccc(C(=O)NS(=O)(=O)c3cccc(N)n3)c(N3C[C@@H](C)CC3(C)C)n2)cc(C(F)(F)F)c1 [Compound 1674, N-[(6-amino-2-pyridyl)sulfonyl]-6-[3-isopropoxy-5-(trifluoromethyl)phenyl]-2-[(4S)-2,2,4-trimethylpyrrolidin-1-yl]pyridine-3-carboxamide]
27 | +++ (“+++” means <3 uM) | COc1ncccc1-c1ccc(C(=O)NS(=O)(=O)c2cccnc2N)c(N2C[C@@H](C)CC2(C)C)n1 [Compound 1980, N-[(2-amino-3-pyridyl)sulfonyl]-6-(2-methoxy-3-pyridyl)-2-[(4S)-2,2,4-trimethylpyrrolidin-1-yl]pyridine-3-carboxamide]
28 | +++ (“+++” means <3 uM) | CCOc1ccc(-c2ccc(C(=O)NS(=O)(=O)c3cccnc3N)c(N3C[C@@H](C)CC3(C)C)n2)cc1 [Compound 1945, N-[(2-amino-3-pyridyl)sulfonyl]-6-(4-ethoxyphenyl)-2-[(4S)-2,2,4-trimethylpyrrolidin-1-yl]pyridine-3-carboxamide]
